# Calls of active or inactive are those of the source. No rule for the calls is given here.
# Tested on: CCRIS mutagenicity, Ames/micronucleus/aberration tests
# Assay: CCRIS mutagenicity studies
# [1] = Test System: AMES SALMONELLA TYPHIMURIUM, Strain/Indicator: TA98, Metabolic Activation: NONE, Method: PREINCUBATION
# [2] = Test System: AMES SALMONELLA TYPHIMURIUM, Strain/Indicator: TA100, Metabolic Activation: NONE, Method: PREINCUBATION
# [3] = Test System: AMES SALMONELLA TYPHIMURIUM, Strain/Indicator: TA98, Metabolic Activation: NONE, Method: STANDARD PLATE
# [4] = Test System: AMES SALMONELLA TYPHIMURIUM, Strain/Indicator: TA100, Metabolic Activation: NONE, Method: STANDARD PLATE
# [5] = Test System: AMES SALMONELLA TYPHIMURIUM, Strain/Indicator: TA1535, Metabolic Activation: NONE, Method: STANDARD PLATE
# [6] = Test System: AMES SALMONELLA TYPHIMURIUM, Strain/Indicator: TA100, Metabolic Activation: RAT, LIVER, S-9, AROCLOR 1254, Method: STANDARD PLATE
smiles,measurement,setting,value
C=C(C)C(=O)OCCN(C)C,mutagenic call,[1],inactive; negative
same,mutagenic call,"Test System: AMES SALMONELLA TYPHIMURIUM, Strain/Indicator: TA98, Metabolic Activation: RAT LIVER S-9, PHENOBARBITAL AND BETA-NAPHTHOFLAVONE, Method: PREINCUBATION",inactive; negative
same,mutagenic call,[2],inactive; negative
same,mutagenic call,"Test System: AMES SALMONELLA TYPHIMURIUM, Strain/Indicator: TA100, Metabolic Activation: RAT LIVER S-9, PHENOBARBITAL AND BETA-NAPHTHOFLAVONE, Method: PREINCUBATION",inactive; negative
same,mutagenic call,"Test System: AMES SALMONELLA TYPHIMURIUM, Strain/Indicator: TA102, Metabolic Activation: NONE, Method: PREINCUBATION",inactive; negative
same,mutagenic call,"Test System: AMES SALMONELLA TYPHIMURIUM, Strain/Indicator: TA102, Metabolic Activation: RAT LIVER S-9, PHENOBARBITAL AND BETA-NAPHTHOFLAVONE, Method: PREINCUBATION",inactive; negative
same,mutagenic call,"Test System: AMES SALMONELLA TYPHIMURIUM, Strain/Indicator: TA104, Metabolic Activation: NONE, Method: PREINCUBATION",inactive; negative
same,mutagenic call,"Test System: AMES SALMONELLA TYPHIMURIUM, Strain/Indicator: TA104, Metabolic Activation: RAT LIVER S-9, PHENOBARBITAL AND BETA-NAPHTHOFLAVONE, Method: PREINCUBATION",active; positive
same,mutagenic call,"Test System: AMES SALMONELLA TYPHIMURIUM, Strain/Indicator: TA1535, Metabolic Activation: NONE, Method: PREINCUBATION",inactive; negative
same,mutagenic call,"Test System: AMES SALMONELLA TYPHIMURIUM, Strain/Indicator: TA1535, Metabolic Activation: RAT LIVER S-9, PHENOBARBITAL AND BETA-NAPHTHOFLAVONE, Method: PREINCUBATION",inactive; negative
same,mutagenic call,"Test System: AMES SALMONELLA TYPHIMURIUM, Strain/Indicator: TA1537, Metabolic Activation: NONE, Method: PREINCUBATION",inactive; negative
same,mutagenic call,"Test System: AMES SALMONELLA TYPHIMURIUM, Strain/Indicator: TA1537, Metabolic Activation: RAT LIVER S-9, PHENOBARBITAL AND BETA-NAPHTHOFLAVONE, Method: PREINCUBATION",inactive; negative
same,mutagenic call,"Test System: E.COLI, Strain/Indicator: WP2UVRA/PKM101, Metabolic Activation: NONE, Method: PREINCUBATION",inactive; negative
same,mutagenic call,"Test System: E.COLI, Strain/Indicator: WP2UVRA/PKM101, Metabolic Activation: RAT LIVER S-9, PHENOBARBITAL AND BETA-NAPHTHOFLAVONE, Method: PREINCUBATION",inactive; negative
same,mutagenic call,"Test System: E.COLI, Strain/Indicator: WP2UVRA, Metabolic Activation: NONE, Method: PREINCUBATION",inactive; negative
same,mutagenic call,"Test System: E.COLI, Strain/Indicator: WP2UVRA, Metabolic Activation: RAT LIVER S-9, PHENOBARBITAL AND BETA-NAPHTHOFLAVONE, Method: PREINCUBATION",inactive; negative
CCCC(c1cc(C(C)(C)C)c(O)cc1C)c1cc(C(C)(C)C)c(O)cc1C,mutagenic call,[3],inactive; negative
same,mutagenic call,"Test System: AMES SALMONELLA TYPHIMURIUM, Strain/Indicator: TA98, Metabolic Activation: S-9, Method: STANDARD PLATE",inactive; negative
same,mutagenic call,[4],inactive; negative
same,mutagenic call,"Test System: AMES SALMONELLA TYPHIMURIUM, Strain/Indicator: TA100, Metabolic Activation: S-9, Method: STANDARD PLATE",inactive; negative
Clc1ccccc1C(c1ccccc1)C(c1ccccc1)c1ccccc1Cl (stereo unspecified),mutagenic call,"Test System: Mouse lymphoma, Strain/Indicator: L5178Y (tk+/tk-), Metabolic Activation: None, Method: Suspension/plate",inactive; negative
same,mutagenic call,"Test System: Mouse lymphoma, Strain/Indicator: L5178Y (tk+/tk-), Metabolic Activation: Rat, Liver, S-9, Aroclor 1254, Method: Suspension/plate",active; equivocal (previous evaluation positive)
CC(=O)OCc1ccc([N+](=O)[O-])cc1,mutagenic call,[1],inactive; negative
same,mutagenic call,"Test System: AMES SALMONELLA TYPHIMURIUM, Strain/Indicator: TA100(NR), Metabolic Activation: NONE, Method: PREINCUBATION",inactive; negative
same,mutagenic call,[2],active; positive
same,mutagenic call,"Test System: AMES SALMONELLA TYPHIMURIUM, Strain/Indicator: TA100, Metabolic Activation: RAT, LIVER, S-9, AROCLOR 1254, Method: PREINCUBATION",active; positive
Nc1ccc2ccc3ccccc3c2c1,mutagenic call,"Test System: AMES SALMONELLA TYPHIMURIUM, Strain/Indicator: TA98, Metabolic Activation: RAT, LIVER, S-9, AROCLOR 1254 (2 OR 4%), Method: STANDARD PLATE",active; positive
same,mutagenic call,"Test System: AMES SALMONELLA TYPHIMURIUM, Strain/Indicator: TA100, Metabolic Activation: RAT, LIVER, S-9, AROCLOR 1254 (2%), Method: STANDARD PLATE",active; positive
same,mutagenic call,"Test System: AMES SALMONELLA TYPHIMURIUM, Strain/Indicator: TA1535, Metabolic Activation: RAT, LIVER, S-9, AROCLOR 1254 (2%), Method: STANDARD PLATE",active; positive
same,mutagenic call,"Test System: AMES SALMONELLA TYPHIMURIUM, Strain/Indicator: TA1537, Metabolic Activation: RAT, LIVER, S-9, AROCLOR 1254 (2%), Method: STANDARD PLATE",active; positive
c1ccc(Cc2ccc(OCC3CO3)cc2)cc1 (stereo unspecified),mutagenic call,[4],active; positive
same,mutagenic call,[5],active; positive
Cc1cc(=O)oc2c3c(ccc12)C1(C)OOC1(C)O3 (stereo unspecified),mutagenic call,[2],active; positive
CN(Cc1cccc(Br)c1)N=O,mutagenic call,"Test System: AMES SALMONELLA TYPHIMURIUM, Strain/Indicator: TA1535, Metabolic Activation: HAMSTER, LIVER, S-9, AROCLOR 1254, Method: STANDARD PLATE",active; positive
same,mutagenic call,[5],inactive; negative
O=C(COc1cc(Cl)c(Cl)cc1Cl)N[C@@H](Cc1c[nH]c2ccccc12)C(=O)O,mutagenic call,"Test System: AMES SALMONELLA TYPHIMURIUM, Strain/Indicator: TA97, Metabolic Activation: NONE, Method: STANDARD PLATE",inactive; negative
same,mutagenic call,"Test System: AMES SALMONELLA TYPHIMURIUM, Strain/Indicator: TA97, Metabolic Activation: RAT, LIVER, S-9, AROCLOR 1254, Method: STANDARD PLATE",inactive; negative
same,mutagenic call,[3],inactive; negative
same,mutagenic call,"Test System: AMES SALMONELLA TYPHIMURIUM, Strain/Indicator: TA98, Metabolic Activation: RAT, LIVER, S-9, AROCLOR 1254, Method: STANDARD PLATE",inactive; negative
same,mutagenic call,[4],inactive; negative
same,mutagenic call,[6],inactive; negative
same,mutagenic call,[5],inactive; negative
same,mutagenic call,"Test System: AMES SALMONELLA TYPHIMURIUM, Strain/Indicator: TA1535, Metabolic Activation: RAT, LIVER, S-9, AROCLOR 1254, Method: STANDARD PLATE",inactive; negative
same,mutagenic call,"Test System: AMES SALMONELLA TYPHIMURIUM, Strain/Indicator: TA1538, Metabolic Activation: NONE, Method: STANDARD PLATE",inactive; negative
same,mutagenic call,"Test System: AMES SALMONELLA TYPHIMURIUM, Strain/Indicator: TA1538, Metabolic Activation: RAT, LIVER, S-9, AROCLOR 1254, Method: STANDARD PLATE",inactive; negative
C=CCn1cc2c3c(cccc31)[C@H]1C=C(CO)CN(C)[C@@H]1C2,mutagenic call,[6],active; positive
